From patent US10035800B2 (AbbVie Inc., priority 2013, dated 2018)

Columns and labels:
[1] = target: T1, BRD4 (BDI_K57-E168) (Homo sapiens, UniProt O60885); assay: TR-FRET bromodomain binding assay, first bromodomain of BRD4; conditions: TR-FRET assay protocol G (compound 0.92 μM-15 pM); 100 nM probe
T1 construct: BD1: amino acids K57-E168; made in house
In short: (§1)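 Probe displacement by TR-FRET: 8 nM His-BRD4 bromodomain, 1 nM Eu-anti-His, Alexa647 BET-inhibitor probe at 100 nM (BDI) or 30 nM (BDII); 20 mM Na phosphate pH 6.0, 2% DMSO; 1 h RT. Ex 340, Em 495/520. IC50 from 4PL fit; Ki from IC50, probe Kd and probe concentration.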

[2] = target: T2, BRD4 (BDII_E352-M457) (Homo sapiens, UniProt O60885); assay: TR-FRET bromodomain binding assay, second bromodomain of BRD4; conditions: TR-FRET assay protocol G (compound 0.92 μM-15 pM); 30 nM probe
T2 construct: protocol; made in house
In short: as §1

[3] = test system: breast cancer cell line MX-1; assay: MX-1 cell line proliferation assay; format: cell-based; conditions: MX-1 cells, 3-day proliferation assay, Cell Titer Glo; read-out: Cellular proliferation: EC50
In short: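 MX-1 cells at 5000/well, in RPMI 1640 with 10% FBS, were exposed to compounds for 3 days. Final concentrations ranged 3 μM–0.1 nM or 1 μM–0.03 nM, in 3-fold steps. Cell Titer Glo luminescence was normalized to DMSO and fitted sigmoidally for EC50; overall MSR 2.1.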

Ki [1]	Ki [2]	EC50 [3]	SMILES
72.3 nM	1.27 nM	> 1000 nM	Cn1cc2c3c(c[nH]c3c1=O)C(CN1C(=O)c3ccccc3C1=O)N(c1ccc(F)cc1F)c1ccc(CS(C)(=O)=O)cc1-2 (stereo not drawn) [Example 117, 2-((4-(2,4-difluorophenyl)-10-methyl-7-((methylsulfonyl)methyl)-11-oxo-3,4,10,11-tetrahydro-1H-1,4,10-triazadibenzo[cd,f]azulen-3-yl)methyl)isoindoline-1,3-dione]
108 nM	8.48 nM	363 nM	Cn1cc2c3c(c[nH]c3c1=O)C(c1ccccn1)N(c1ccc(F)cc1F)c1ccc(CS(C)(=O)=O)cc1-2 (stereo not drawn) [Example 232, 4-(2,4-difluorophenyl)-10-methyl-7-((methylsulfonyl)methyl)-3-(pyridin-2-yl)-3,4-dihydro-1H-1,4,10-triazadibenzo[cd,f]azulen-11(10H)-one]
65.7 nM	5.87 nM	454 nM	Cn1cc2c3c(c[nH]c3c1=O)[C@@H](c1ccccc1)N(c1ccc(F)cc1F)c1ccc(CS(C)(=O)=O)cc1-2 (single isomer, unassigned) [Example 215]
1.2 nM	0.86 nM	6.54 nM	Cn1cc2c3c(c(C(N)=O)[nH]c3c1=O)CN(c1ccc(F)cc1F)c1ccc(CS(C)(=O)=O)cc1-2 [Example 209, 4-(2,4-difluorophenyl)-10-methyl-7-((methylsulfonyl)methyl)-11-oxo-3,4,10,11-tetrahydro-1H-1,4,10-triazadibenzo[cd,f]azulene-2-carboxamide]
9.95 nM	0.983 nM	> 1000 nM	Cn1cc2c3c(c[nH]c3c1=O)C(CCC(=O)NCc1ccccc1)N(c1ccc(F)cc1F)c1ccc(CS(C)(=O)=O)cc1-2 (stereo not drawn) [Example 123, N-benzyl-3-(4-(2,4-difluorophenyl)-10-methyl-7-((methylsulfonyl)methyl)-11-oxo-3,4,10,11-tetrahydro-1H-1,4,10-triazadibenzo[cd,f]azulen-3-yl)propanamide]
6.77 nM	0.54 nM	31.9 nM	CCOCCCC1c2c[nH]c3c(=O)n(C)cc(c23)-c2cc(CS(C)(=O)=O)ccc2N1c1ccc(F)cc1F (stereo not drawn) [Example 148, 4-(2,4-difluorophenyl)-3-(3-ethoxypropyl)-10-methyl-7-((methylsulfonyl)methyl)-3,4-dihydro-1H-1,4,10-triazadibenzo[cd,f]azulen-11(10H)-one]
39 nM	5.42 nM	149 nM	Cn1cc2c3c(c[nH]c3c1=O)C(c1cccc3cccnc13)N(c1ccc(F)cc1F)c1ccc(CS(C)(=O)=O)cc1-2 (stereo not drawn) [Example 231, 4-(2,4-difluorophenyl)-10-methyl-7-((methylsulfonyl)methyl)-3-(quinolin-8-yl)-3,4-dihydro-1H-1,4,10-triazadibenzo[cd,f]azulen-11(10H)-one]
9.26 nM	2.36 nM	342 nM	Cn1cc2c3c(c[nH]c3c1=O)C(CCC(=O)N1CCN(C(=O)OC(C)(C)C)CC1)N(c1ccc(F)cc1F)c1ccc(CS(C)(=O)=O)cc1-2 (stereo not drawn) [Example 125, tert-butyl 4-(3-(4-(2,4-difluorophenyl)-10-methyl-7-((methylsulfonyl)methyl)-11-oxo-3,4,10,11-tetrahydro-1H-1,4,10-triazadibenzo[cd,f]azulen-3-yl)propanoyl)piperazine-1-carboxylate]
9.28 nM	1.59 nM	> 1000 nM	Cn1cc2c3c(c[nH]c3c1=O)C(CCC(=O)N1CCOCC1)N(c1ccc(F)cc1F)c1ccc(CS(C)(=O)=O)cc1-2 (stereo not drawn) [Example 120, 4-(2,4-difluorophenyl)-10-methyl-7-((methylsulfonyl)methyl)-3-(3-morpholino-3-oxopropyl)-3,4-dihydro-1H-1,4,10-triazadibenzo[cd,f]azulen-11(10H)-one]
